Values of other authors, collected in PMC8621674, “Formulation and In Vivo Evaluation of a Solid Self-Emulsifying Drug Delivery System Using Oily Liquid Tocotrienols as Model Active Substance” (Pharmaceutics, 2021).

Conditions: no reference given

Substance | HLB value
caprylocaproyl macrogol-8 glycerides [Labrasol®] | 12
poloxamer 188 | 29
